Assays:
Details in all cases: 72 h
Caco-2 [1] = assay: relative viability EC50 (midpoint between 100% and the lowest measured viability); higher = less toxic
U2OS [2] = assay: as above
Vero E6 [3] = assay: as above
HepG2 [4] = assay: as above
Calu-3 [5] = assay: as above
Caco-2 [6] = assay: drug sensitivity score (DSS) for viability; higher = more toxic; extreme values may be limits of the assay
U2OS [7] = assay: as above
Vero E6 [8] = assay: as above
HepG2 [9] = assay: as above
Calu-3 [10] = assay: as above
Caco-2 [11] = assay: cell viability relative to DMSO; higher = less toxic
U2OS [12] = assay: as above
Vero E6 [13] = assay: as above
HepG2 [14] = assay: as above
Calu-3 [15] = assay: as above

Row | Structure (SMILES) | relative viability EC50 (Caco-2 [1]) | relative viability EC50 (U2OS [2]) | relative viability EC50 (Vero E6 [3]) | relative viability EC50 (HepG2 [4]) | relative viability EC50 (Calu-3 [5]) | drug sensitivity score (Caco-2 [6]) | drug sensitivity score (U2OS [7]) | drug sensitivity score (Vero E6 [8]) | drug sensitivity score (HepG2 [9]) | drug sensitivity score (Calu-3 [10]) | cell viability (Caco-2 [11]; 1 nM) | cell viability (Caco-2 [11]; 10 nM) | cell viability (Caco-2 [11]; 100 nM) | cell viability (Caco-2 [11]; 1000 nM) | cell viability (Caco-2 [11]; 10000 nM) | cell viability (U2OS [12]; 1 nM) | cell viability (U2OS [12]; 10 nM) | cell viability (U2OS [12]; 100 nM) | cell viability (U2OS [12]; 1000 nM) | cell viability (U2OS [12]; 10000 nM) | cell viability (Vero E6 [13]; 1 nM) | cell viability (Vero E6 [13]; 10 nM) | cell viability (Vero E6 [13]; 100 nM) | cell viability (Vero E6 [13]; 1000 nM) | cell viability (Vero E6 [13]; 10000 nM) | cell viability (HepG2 [14]; 1 nM) | cell viability (HepG2 [14]; 10 nM) | cell viability (HepG2 [14]; 100 nM) | cell viability (HepG2 [14]; 1000 nM) | cell viability (HepG2 [14]; 10000 nM) | cell viability (Calu-3 [15]; 1 nM) | cell viability (Calu-3 [15]; 10 nM) | cell viability (Calu-3 [15]; 100 nM) | cell viability (Calu-3 [15]; 1000 nM) | cell viability (Calu-3 [15]; 10000 nM)
1 | CNC(=O)c1cnn(-c2nc(N)c3ncn([C@@H]4O[C@H](CO)[C@@H](O)[C@H]4O)c3n2)c1 [regadenoson] | > 10 µM | > 10 µM | > 10 µM | > 10 µM | > 10 µM | 0 | 0 | 0 | 0 | 0 | 101% | 97.4% | 91.1% | 94.3% | 108% | 95.9% | 92.1% | 102% | 99% | 104% | 101% | 93.7% | 86.2% | 103% | 111% | 102% | 105% | 102% | 90.7% | 117% | 91.7% | 104% | 106% | 102% | 103%
2 | COc1ccc(C2CNC(=O)NC2)cc1O[C@H]1C[C@@H]2CC[C@H]1C2 [atizoram] | > 10 µM | > 10 µM | > 10 µM | > 10 µM | > 10 µM | 0 | 0 | 0.1 | 1 | 0 | 95.3% | 96.9% | 98.6% | 96.6% | 102% | 106% | 96.5% | 101% | 102% | 103% | 96.5% | 105% | 100% | 99.5% | 87.4% | 99% | 107% | 102% | 94.1% | 82.8% | 103% | 102% | 96.3% | 108% | 108%
3 | COc1cc2nc(N3CCN(C(=O)COc4c(OC)cccc4C(C)C)CC3)nc(N)c2cc1OC [Rec-15/2615] | > 10 µM | > 10 µM | > 10 µM | > 10 µM | > 10 µM | 1 | 0.1 | 0 | 1 | 0.4 | 84.3% | 102% | 101% | 90.1% | 84.4% | 96.4% | 97.9% | 94.3% | 95.9% | 84.2% | 98.8% | 99.3% | 99.4% | 99.6% | 95.5% | 91.2% | 92.1% | 103% | 92% | 83.7% | 98.7% | 102% | 97.3% | 95.4% | 84.8%
4 | O=c1sn(-c2cccc3ccccc23)c(=O)n1Cc1ccccc1 [tideglusib] | > 10 µM | > 10 µM | > 10 µM | > 10 µM | > 10 µM | 0 | 0 | 0 | 0 | 0 | 95.6% | 90.2% | 102% | 98.9% | 110% | 98% | 101% | 103% | 102% | 97% | 97% | 96.8% | 97% | 93.9% | 100% | 90.7% | 106% | 100% | 98.8% | 103% | 108% | 97.7% | 106% | 99% | 97.2%
5 | CC(C)N(C[C@H]1O[C@@H](n2cnc3c(N)ncnc32)[C@H](O)[C@@H]1O)[C@H]1C[C@@H](CCc2nc3cc(C(C)(C)C)ccc3[nH]2)C1 [EPZ-5676] | > 10 µM | > 10 µM | > 10 µM | > 10 µM | > 10 µM | 0 | 0 | 0 | 0 | 0 | 90.7% | 99.2% | 100% | 97.1% | 101% | 105% | 97.5% | 101% | 102% | 111% | 106% | 106% | 98.9% | 102% | 106% | 106% | 94.9% | 89.7% | 105% | 108% | 101% | 102% | 95.4% | 104% | 104%
6 | CCn1cnc(C(=O)NC)c1C(=O)NC [ethimizol] | > 10 µM | > 10 µM | > 10 µM | > 10 µM | > 10 µM | 0 | 0 | 0 | 0 | 0 | 97.5% | 104% | 91.5% | 99.1% | 92.3% | 98.6% | 102% | 98.1% | 98.2% | 94.9% | 96.4% | 96.2% | 96.4% | 99.9% | 100% | 89.3% | 114% | 103% | 104% | 111% | 102% | 92.4% | 91.3% | 102% | 99.1%
7 | Cc1cc(O)c(C(C)C)cc1Cl [chlorothymol] | > 10 µM | > 10 µM | > 10 µM | > 10 µM | > 10 µM | 0 | 0 | 0 | 0 | 0 | 95.6% | 90.3% | 95.8% | 101% | 99.6% | 99.5% | 97.9% | 104% | 95.9% | 102% | 96.9% | 96.9% | 93.7% | 100% | 109% | 89.8% | 90.1% | 92.9% | 98.7% | 104% | 100% | 83.8% | 101% | 93.5% | 91.9%

— the supplement of paper PMC13380429
